Experimental findings from ChEMBL document CHEMBL1136081, “Structure-activity relationships of novel anti-malarial agents. Part 7: N-(3-benzoyl-4-tolylacetylaminophenyl)-3-(5-aryl-2-furyl)acrylic acid amides with polar moieties” (Bioorg Med Chem Lett, 2003) are described below.

For this test, the system named is Plasmodium falciparum. Put plainly: Inhibition against Plasmodium falciparum Dd2 in erythrocytes in semiautomated micro dilution assay. Type of test: functional, organism-based.

pIC50: −log10 of the molar value.

By pIC50 is commonly meant −log10 of the IC50, conventionally taken in molar units. Read a high pIC50 as a small IC50.

Consider `Cc1ccc(CC(=O)Nc2ccc(NC(=O)/C=C/c3ccc(-c4ccc(C#N)cc4)o3)cc2C(=O)c2ccccc2)cc1`, for which the pIC50 is 6.66.

In the case of `Cc1ccc(CC(=O)Nc2ccc(NC(=O)/C=C/c3ccc(-c4ccc(NC=O)cc4)o3)cc2C(=O)c2ccccc2)cc1`, the pIC50 was 6.55.

In turn, `Cc1ccc(CC(=O)Nc2ccc(NC(=O)/C=C/c3ccc(-c4ccc(N)cc4)o3)cc2C(=O)c2ccccc2)cc1` had a pIC50 of 6.59.

For the compound `Cc1ccc(CC(=O)Nc2ccc(NC(=O)/C=C/c3ccc(-c4ccc(S(N)(=O)=O)cc4)o3)cc2C(=O)c2ccccc2)cc1`, the pIC50 is 6.70.

For the compound `Cc1ccc(CC(=O)Nc2ccc(NC(=O)/C=C/c3ccc(-c4ccc(C(F)(F)F)cc4)o3)cc2C(=O)c2ccccc2)cc1`, the pIC50 is 7.11.

`CC(=O)c1ccc(-c2ccc(/C=C/C(=O)Nc3ccc(NC(=O)Cc4ccc(C)cc4)c(C(=O)c4ccccc4)c3)o2)cc1` showed a pIC50 of 7.17.

In the case of `Cc1ccc(CC(=O)Nc2ccc(NC(=O)/C=C/c3ccc(-c4ccc(C(N)=O)cc4)o3)cc2C(=O)c2ccccc2)cc1`, the pIC50 was 6.25.

The compound `COC(=O)c1ccc(-c2ccc(/C=C/C(=O)Nc3ccc(NC(=O)Cc4ccc(C)cc4)c(C(=O)c4ccccc4)c3)o2)cc1` had a pIC50 of 6.77.

`CC(=O)Nc1ccc(-c2ccc(/C=C/C(=O)Nc3ccc(NC(=O)Cc4ccc(C)cc4)c(C(=O)c4ccccc4)c3)o2)cc1` had a pIC50 of 6.25.

For `Cc1ccc(CC(=O)Nc2ccc(NC(=O)/C=C/c3ccc(-c4ccc(S(C)(=O)=O)cc4)o3)cc2C(=O)c2ccccc2)cc1`, the pIC50 is 7.43. Against the preceding compound, the pIC50 is 1.18 log units higher.

On to `CCS(=O)(=O)c1ccc(-c2ccc(/C=C/C(=O)Nc3ccc(NC(=O)Cc4ccc(C)cc4)c(C(=O)c4ccccc4)c3)o2)cc1`, for which the pIC50 is 7.22.
